This passage reports GI50 and IC50 results from ChEMBL document CHEMBL1139012, “Synthesis and biological evaluation of purealin and analogues as cytoplasmic dynein heavy chain inhibitors” (J Med Chem, 2006).

The structures appear in SMILES notation.

In one assay the test system is PC-3. Kind of assay: Antiproliferative activity against human PC3 prostate carcinoma cells by MTS assay. The assay is classed as functional. (Formazan colour is commonly taken as a measure of viable cells.)
The test system of another assay is L1210. Description: Antiproliferative activity against mouse L1210 leukemia cell line by MTS assay. The assay is classed as functional.
Another assay relates to MDA-MB-231. Kind of assay: Antiproliferative activity against human MDA-MB-231 breast carcinoma cells by MTS assay. The assay is classed as functional.
Another assay relates to HT-29. Kind of assay: Antiproliferative activity against human HT29 colon carcinoma cells by MTS assay. The assay is classed as functional.
For the next assay, the system named is 2008. Kind of assay: Antiproliferative activity against human 2008 ovarian carcinoma cells by MTS assay. The assay is classed as functional.
For assay [1], the target named is Cytoplasmic dynein 1 heavy chain 1 (Rattus norvegicus, UniProt P38650). Kind of assay: Inhibition of MT-stimulated ATPase activity of rat cytoplasmic dynein heavy chain motor domain.
Chain of Cytoplasmic dynein 1 heavy chain 1 (P38650 whole entry, the tested form may be a part): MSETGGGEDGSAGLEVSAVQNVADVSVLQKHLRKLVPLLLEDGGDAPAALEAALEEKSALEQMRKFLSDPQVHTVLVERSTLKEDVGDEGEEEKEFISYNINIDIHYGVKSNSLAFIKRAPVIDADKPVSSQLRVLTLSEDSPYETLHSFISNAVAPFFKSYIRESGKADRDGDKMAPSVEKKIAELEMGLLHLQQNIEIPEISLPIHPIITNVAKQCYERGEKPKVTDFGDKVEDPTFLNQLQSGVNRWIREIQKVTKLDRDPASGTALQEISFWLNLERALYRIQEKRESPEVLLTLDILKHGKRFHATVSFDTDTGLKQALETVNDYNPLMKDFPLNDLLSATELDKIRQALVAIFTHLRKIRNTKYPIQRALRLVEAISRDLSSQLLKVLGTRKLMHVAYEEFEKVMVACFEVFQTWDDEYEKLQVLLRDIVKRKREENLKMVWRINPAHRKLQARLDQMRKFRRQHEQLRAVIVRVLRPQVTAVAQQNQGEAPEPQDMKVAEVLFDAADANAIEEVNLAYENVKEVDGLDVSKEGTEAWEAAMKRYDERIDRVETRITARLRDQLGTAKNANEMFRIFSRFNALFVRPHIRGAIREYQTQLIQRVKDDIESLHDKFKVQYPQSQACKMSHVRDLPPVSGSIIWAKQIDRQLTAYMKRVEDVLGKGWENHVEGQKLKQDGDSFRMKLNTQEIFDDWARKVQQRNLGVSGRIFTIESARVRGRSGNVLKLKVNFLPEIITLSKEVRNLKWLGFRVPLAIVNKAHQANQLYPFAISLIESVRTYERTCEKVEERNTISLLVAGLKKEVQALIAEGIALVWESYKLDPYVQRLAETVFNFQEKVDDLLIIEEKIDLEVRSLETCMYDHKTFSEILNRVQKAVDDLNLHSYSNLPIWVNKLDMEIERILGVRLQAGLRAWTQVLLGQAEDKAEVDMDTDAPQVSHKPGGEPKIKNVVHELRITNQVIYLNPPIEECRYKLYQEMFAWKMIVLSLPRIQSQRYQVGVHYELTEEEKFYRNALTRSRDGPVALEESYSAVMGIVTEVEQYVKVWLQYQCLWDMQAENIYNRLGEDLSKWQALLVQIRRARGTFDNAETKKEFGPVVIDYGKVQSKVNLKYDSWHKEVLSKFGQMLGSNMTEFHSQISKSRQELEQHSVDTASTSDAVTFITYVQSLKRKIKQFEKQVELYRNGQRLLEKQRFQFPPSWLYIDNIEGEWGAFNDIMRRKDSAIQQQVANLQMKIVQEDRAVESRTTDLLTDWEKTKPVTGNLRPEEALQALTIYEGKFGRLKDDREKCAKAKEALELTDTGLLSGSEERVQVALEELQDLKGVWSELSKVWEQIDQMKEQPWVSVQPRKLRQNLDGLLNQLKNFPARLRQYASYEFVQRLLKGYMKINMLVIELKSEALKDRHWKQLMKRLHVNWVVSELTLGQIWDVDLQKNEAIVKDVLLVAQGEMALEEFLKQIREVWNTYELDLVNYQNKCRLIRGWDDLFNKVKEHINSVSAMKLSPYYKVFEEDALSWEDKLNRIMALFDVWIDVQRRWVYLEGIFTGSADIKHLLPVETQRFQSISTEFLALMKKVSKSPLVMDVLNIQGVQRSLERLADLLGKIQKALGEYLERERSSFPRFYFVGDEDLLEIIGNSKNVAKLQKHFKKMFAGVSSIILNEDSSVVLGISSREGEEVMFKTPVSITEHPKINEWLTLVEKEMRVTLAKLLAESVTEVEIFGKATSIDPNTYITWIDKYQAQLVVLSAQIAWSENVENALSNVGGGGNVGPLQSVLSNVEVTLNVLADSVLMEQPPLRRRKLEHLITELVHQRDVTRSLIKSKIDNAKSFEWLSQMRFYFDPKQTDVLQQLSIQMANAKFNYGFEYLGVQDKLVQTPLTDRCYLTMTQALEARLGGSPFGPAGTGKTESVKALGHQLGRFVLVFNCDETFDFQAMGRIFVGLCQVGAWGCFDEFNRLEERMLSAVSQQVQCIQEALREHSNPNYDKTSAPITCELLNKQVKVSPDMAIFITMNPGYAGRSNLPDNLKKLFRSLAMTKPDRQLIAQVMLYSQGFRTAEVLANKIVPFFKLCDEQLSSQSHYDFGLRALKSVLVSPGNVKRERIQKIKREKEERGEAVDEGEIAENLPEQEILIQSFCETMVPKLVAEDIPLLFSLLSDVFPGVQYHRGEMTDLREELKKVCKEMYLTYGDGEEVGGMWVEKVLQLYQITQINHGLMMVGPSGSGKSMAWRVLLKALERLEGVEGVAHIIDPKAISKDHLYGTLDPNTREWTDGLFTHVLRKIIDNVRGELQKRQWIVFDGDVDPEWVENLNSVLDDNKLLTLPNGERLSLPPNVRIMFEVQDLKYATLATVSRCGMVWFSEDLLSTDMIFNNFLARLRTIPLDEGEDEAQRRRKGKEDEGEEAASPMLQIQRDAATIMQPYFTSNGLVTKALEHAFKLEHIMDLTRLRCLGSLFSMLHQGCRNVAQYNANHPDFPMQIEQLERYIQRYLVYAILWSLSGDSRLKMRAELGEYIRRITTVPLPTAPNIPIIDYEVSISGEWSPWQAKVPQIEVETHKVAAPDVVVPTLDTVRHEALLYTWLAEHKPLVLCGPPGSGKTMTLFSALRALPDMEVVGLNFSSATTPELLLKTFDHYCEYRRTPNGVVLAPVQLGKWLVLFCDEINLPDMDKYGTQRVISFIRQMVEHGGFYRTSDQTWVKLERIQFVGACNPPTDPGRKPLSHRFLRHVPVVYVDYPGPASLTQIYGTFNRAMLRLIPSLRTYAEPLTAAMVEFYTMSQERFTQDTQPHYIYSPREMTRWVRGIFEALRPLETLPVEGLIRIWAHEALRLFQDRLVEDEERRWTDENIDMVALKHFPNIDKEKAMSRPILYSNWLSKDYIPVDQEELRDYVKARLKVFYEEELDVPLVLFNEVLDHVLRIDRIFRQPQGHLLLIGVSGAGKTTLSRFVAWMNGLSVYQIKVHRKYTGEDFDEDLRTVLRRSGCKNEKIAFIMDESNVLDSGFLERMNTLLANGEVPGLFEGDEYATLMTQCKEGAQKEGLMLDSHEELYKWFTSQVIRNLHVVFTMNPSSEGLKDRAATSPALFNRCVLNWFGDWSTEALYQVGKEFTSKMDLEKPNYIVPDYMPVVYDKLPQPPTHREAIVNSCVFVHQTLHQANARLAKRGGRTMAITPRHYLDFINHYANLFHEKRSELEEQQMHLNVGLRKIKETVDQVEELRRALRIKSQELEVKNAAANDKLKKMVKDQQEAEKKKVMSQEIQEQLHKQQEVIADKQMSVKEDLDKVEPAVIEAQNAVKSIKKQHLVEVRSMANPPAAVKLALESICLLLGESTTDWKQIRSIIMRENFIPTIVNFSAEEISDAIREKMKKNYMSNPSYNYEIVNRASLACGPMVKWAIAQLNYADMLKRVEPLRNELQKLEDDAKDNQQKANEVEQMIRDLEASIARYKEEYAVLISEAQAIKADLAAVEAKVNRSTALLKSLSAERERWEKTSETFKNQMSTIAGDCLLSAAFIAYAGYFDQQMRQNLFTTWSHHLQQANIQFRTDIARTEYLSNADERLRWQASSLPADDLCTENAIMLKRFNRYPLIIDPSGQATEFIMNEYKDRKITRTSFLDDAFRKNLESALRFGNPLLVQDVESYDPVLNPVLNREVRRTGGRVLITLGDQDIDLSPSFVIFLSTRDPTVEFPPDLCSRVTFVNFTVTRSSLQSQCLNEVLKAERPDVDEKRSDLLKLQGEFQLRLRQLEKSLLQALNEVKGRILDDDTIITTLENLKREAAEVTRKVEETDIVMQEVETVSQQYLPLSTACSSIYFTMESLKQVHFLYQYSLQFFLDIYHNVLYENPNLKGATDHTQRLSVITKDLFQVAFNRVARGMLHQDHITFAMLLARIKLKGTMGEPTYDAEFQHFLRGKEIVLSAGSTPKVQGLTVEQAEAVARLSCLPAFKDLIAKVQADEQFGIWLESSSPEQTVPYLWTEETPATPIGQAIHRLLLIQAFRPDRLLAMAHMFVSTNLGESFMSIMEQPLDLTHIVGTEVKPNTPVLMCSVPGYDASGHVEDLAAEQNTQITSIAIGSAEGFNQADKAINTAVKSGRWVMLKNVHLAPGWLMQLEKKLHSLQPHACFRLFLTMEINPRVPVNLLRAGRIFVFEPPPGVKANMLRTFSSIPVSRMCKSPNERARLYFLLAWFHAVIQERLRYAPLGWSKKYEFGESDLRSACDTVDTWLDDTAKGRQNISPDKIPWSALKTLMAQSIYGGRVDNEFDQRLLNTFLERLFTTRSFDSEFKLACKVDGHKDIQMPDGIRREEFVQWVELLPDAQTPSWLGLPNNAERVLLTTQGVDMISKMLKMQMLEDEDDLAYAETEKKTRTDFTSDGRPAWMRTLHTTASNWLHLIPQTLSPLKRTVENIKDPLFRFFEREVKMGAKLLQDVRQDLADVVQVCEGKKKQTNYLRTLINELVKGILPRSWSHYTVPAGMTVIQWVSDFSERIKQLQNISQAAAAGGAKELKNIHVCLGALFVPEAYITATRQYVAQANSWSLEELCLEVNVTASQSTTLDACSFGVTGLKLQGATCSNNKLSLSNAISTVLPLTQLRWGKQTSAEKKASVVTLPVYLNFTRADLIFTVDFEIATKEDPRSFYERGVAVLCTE

In general, GI50 refers to the concentration giving 50% growth inhibition. Read a high GI50 as less potent growth inhibition. On to `COc1ccc(CCNC(=O)/C(Cc2cc(Br)cc(Br)c2OCCCN)=N\O)cc1`, for which the GI50 in the assay on PC-3 stood at 35 µM; in the assay with L1210 it was 6.2 µM; in the assay on MDA-MB-231, 8.8 µM; in the assay with HT-29, 4.9 µM; with 2008 it was 25 µM.
As usually defined, the IC50 is the concentration that inhibits the measured activity by half. Higher therefore signals a need for much substance. `NCCCOc1c(Br)cc(C/C(=N/O)C(=O)NCCc2c[nH]c(N)n2)cc1Br` [PUREALIDIN A] showed an IC50 in assay [1] of 42 µM. In addition, the GI50 in the assay on PC-3 is over 50 µM; with L1210, 4.7 µM; in the assay with MDA-MB-231, over 50 µM; with HT-29, over 50 µM; in the assay with 2008, over 50 µM.
As for `CC(C)CCCCCCCCCCCC(=O)NCCCOc1c(Br)cc(C/C(=N/O)C(=O)NCCc2c[nH]c(N)n2)cc1Br` [LIPOPUREALIN B], the GI50 was found to be 25 µM in the assay with PC-3; 12 µM in the assay with L1210; 28 µM in the assay with MDA-MB-231; 30 µM in the assay with HT-29; 29 µM in the assay on 2008.
The compound `COC1=C(Br)[C@@H](O)[C@]2(C=C1Br)CC(C(=O)NCCCOc1c(Br)cc(C/C(=N/O)C(=O)NCCc3c[nH]c(N)n3)cc1Br)=NO2` [PUREALIN] had an IC50 in assay [1] of 35 µM. Also, the GI50 is over 50 µM in the assay on PC-3; 3.2 µM in the assay on L1210; over 50 µM in the assay on MDA-MB-231; over 50 µM in the assay on HT-29; over 50 µM in the assay with 2008.
As to `NCCCOc1c(Br)cc(C/C(=N/O)C(=O)NCCc2ccccc2)cc1Br`, the GI50 is 31 µM with PC-3; 6.4 µM with L1210; 27 µM with MDA-MB-231; 31 µM in the assay on HT-29; 29 µM in the assay on 2008.
For `NCCCOc1c(Br)cc(C/C(=N/O)C(=O)NCCc2ccc(Cl)cc2)cc1Br`, the GI50 in the assay on PC-3 was determined as 30 µM; in the assay with L1210 it was 7.8 µM; in the assay with MDA-MB-231 it was 27 µM; in the assay on HT-29, 31 µM; with 2008 it was 29 µM.
The corresponding values for `COc1ccc(CCNC(=O)/C(Cc2cc(Cl)cc(Cl)c2OCCCN)=N\O)cc1` are 32 µM, 6.9 µM, 24 µM, 6.2 µM and 29 µM.
In assay [1], `NCCCOc1ccc(C/C(=N/O)C(=O)NCCc2ccc(Cl)cc2)cc1Br` displayed an IC50 of over 50 µM. In addition, the GI50 in the assay on PC-3 was 33 µM; in the assay on L1210, 6.5 µM; in the assay with MDA-MB-231 it was 26 µM; with HT-29, 27 µM; in the assay with 2008, 27 µM.
`COc1ccc(CCNC(=O)/C(Cc2ccc(OCCCN)c(Br)c2)=N\O)cc1`: the GI50 came to 39 µM in the assay with PC-3; 9.9 µM with L1210; 48 µM with MDA-MB-231; 30 µM in the assay with HT-29; 31 µM in the assay with 2008.
In the same order, the values of `NCCCOc1c(Cl)cc(Cl)cc1C/C(=N/O)C(=O)NCCc1ccccc1` are 31 µM, 7.5 µM, 7.6 µM, 5.6 µM and 8.8 µM.
Take `C=C/C=C\[C@H](C)[C@H](OC(N)=O)[C@@H](C)[C@H](O)[C@@H](C)C/C(C)=C\[C@H](C)[C@@H](O)[C@@H](C)/C=C\[C@@H](O)C[C@@H]1OC(=O)[C@H](C)[C@@H](O)[C@H]1C` [DISERMOLIDE]: the GI50 in the assay with PC-3 came out at 0.052 µM; in the assay with L1210 it was 0.0092 µM; in the assay on MDA-MB-231, 0.04 µM; with HT-29 it was 0.028 µM; with 2008, 0.0027 µM.
`NCCCOc1ccc(C/C(=N/O)C(=O)NCCc2c[nH]c3ccccc23)cc1Br`: the IC50 in assay [1] is over 50 µM. Moreover, the GI50 was 32 µM in the assay on PC-3; 7.6 µM in the assay with L1210; 25 µM with MDA-MB-231; 30 µM with HT-29; 26 µM in the assay on 2008.
In the case of `NCCCOc1c(Cl)cc(Cl)cc1C/C(=N/O)C(=O)NCCc1ccc(Cl)cc1`, the GI50 is 7.8 µM in the assay on PC-3; 5.9 µM with L1210; 5.2 µM in the assay on MDA-MB-231; 5.5 µM with HT-29; 5.4 µM in the assay on 2008.
In the case of `NCCCOc1c(Br)cc(C/C(=N/O)C(=O)NCCc2c[nH]c3ccccc23)cc1Br`, the GI50 worked out at 26 µM in the assay on PC-3; 5.8 µM in the assay with L1210; 24 µM in the assay on MDA-MB-231; 26 µM in the assay on HT-29; 27 µM in the assay on 2008.
With `COc1ccc(CCNC(=O)/C(Cc2cc(Br)c(OCCCN)c(Br)c2)=N\O)cc1`, the GI50 in the assay with PC-3 is 21 µM; in the assay with L1210, 2.8 µM; in the assay on MDA-MB-231, 17 µM; in the assay on HT-29 it was 20 µM; with 2008 it was 24 µM.
The corresponding values for `NCCCOc1c(Br)cc(Br)cc1C/C(=N/O)C(=O)NCCc1ccccc1` are 19 µM, 6.3 µM, 5.7 µM, 5.3 µM and 19 µM.
In the case of `CCCCCCCCCCCCCC(=O)NCCCOc1c(Br)cc(C/C(=N/O)C(=O)NCCc2c[nH]c(N)n2)cc1Br` [LIPOPUREALIN A], the IC50 in assay [1] was over 50 µM. For the same compound, the GI50 is 30 µM in the assay with PC-3; 9 µM in the assay on L1210; 28 µM in the assay on MDA-MB-231; 29 µM in the assay on HT-29; 28 µM with 2008.
Regarding `CCCCCCCCCCCCCCCC(=O)NCCCOc1c(Br)cc(C/C(=N/O)C(=O)NCCc2c[nH]c(N)n2)cc1Br` [LIPOPUREALIN C], the GI50 came out at 32 µM with PC-3; 9.7 µM in the assay on L1210; 7 µM in the assay with MDA-MB-231; 20 µM with HT-29; 5.7 µM with 2008.
As to `NCCCOc1c(Br)cc(Br)cc1C/C(=N/O)C(=O)NCCc1ccc(Cl)cc1`, the IC50 in assay [1] is over 50 µM. The GI50 came to 15 µM in the assay with PC-3; 6.3 µM in the assay with L1210; 5.6 µM with MDA-MB-231; 5.3 µM with HT-29; 5.6 µM in the assay with 2008.
For the compound `NCCCOc1c(Br)cc(Br)cc1C/C(=N/O)C(=O)NCCc1c[nH]c2ccccc12`, the IC50 in assay [1] was over 50 µM. Further, the GI50 in the assay with PC-3 came out at 31 µM; with L1210 it was 5.4 µM; in the assay on MDA-MB-231, 6.7 µM; in the assay on HT-29 it was 6 µM; in the assay on 2008, 7.5 µM.
Take `NCCCOc1ccc(C/C(=N/O)C(=O)NCCc2ccccc2)cc1Br`: the GI50 in the assay on PC-3 is 31 µM; in the assay with L1210, 6.2 µM; with MDA-MB-231, over 50 µM; in the assay with HT-29 it was 27 µM; with 2008 it was 30 µM.
Compound `NCCCOc1c(Cl)cc(Cl)cc1C/C(=N/O)C(=O)NCCc1c[nH]c2ccccc12` registered an IC50 in assay [1] of over 50 µM. Besides, the GI50 in the assay on PC-3 was 5 µM; with L1210, 5.8 µM; in the assay on MDA-MB-231, 5.3 µM; in the assay on HT-29, 6 µM; in the assay on 2008 it was 5.7 µM.
